Data as given in patent US7772216B2, “Protein kinase and phosphatase inhibitors and methods for designing them” (The Research Foundation of State University of New York, priority 2001, dated 2010).
Like-named read-outs stand apart in the source and are kept apart here. Starred links: 1 amine or outer side, 2 acyl side, 3 side chain; linkers in the order of their positions; H or OH if unused. Non-standard residues stand in square brackets, D forms with d. Residues, ends and D or L forms follow the SMILES beside them. X4 = O=C([C@H](CCCB(O)O)N[*:1])[*:2]

Key:
[1] = biological target: pp60^c-src (Homo sapiens, UniProt P12931); assay: Cellular Mimetic Src assay (RR-SRC phosphorylation); conditions: for inhibition at 500 µM: read-out: % Inhibition of 2 mM RR-src at Inhibitor Concentration (500 μM); for inhibition at 45 µM: inhibitor at 45 μM
[2] = biological target: T1, PKA (Homo sapiens, UniProt P17612); assay: Cellular Mimetic PKA assay; assay type: biochemical
Source text: (§1) The boronic acid inhibitors 21-24 have two Arg's in their sequence also and therefore will bind to the phosphocellulose paper in addition to Kemptamide (although not as consistently or completely due to one less positive charge). Consequently, when analyzed as inhibitors, the amount of phosphorylated Kemptamide produced was not only counted, but also the amount of phosphorylated inhibitor simultaneously produced (e.g. see 26 below). The net result is that distorted IC50 curves are obtained which show net “stimulation” at higher inhibitor concentrations in some cases. […] The underlying substrate behavior of these “inhibitors” makes an accurate measurement of their inhibition potency impossible with the current assay. However, it does appear from the data that homologating the boronic acid functionality out with only CH2 groups (homologations with boronic acid non-peptide Src inhibitors may also be carried out) decreases the binding affinity and ability to function as a substrate.
Phosphorylated Kemptamide is SEQ. ID. No. 6. Phosphorylated 22 is SEQ. ID. No. 4. […] The graphs show their respective rates and levels of phosphorylation with the typical loss of initial velocity kinetics with time (due to substrate depletion and end product inhibition), analogous to a standard L-Ser substrate such as Kemptamide. The comparison of 21 to 22 shown was done in the same assay run, at identical boronic acid substrate concentrations, and with identical Cellular Mimetic assay solutions so that the cpm's could be directly compared. […] That the boronic acid moiety would be phosphorylated by PKA was surprising, but it is even more surprising that the phosphonic-boronic acid mixed anhydride produced (e.g. 26) was stable enough to survive the pH 7.2/37° C. assay incubation and then be isolated by binding to phosphocellulose paper after acid quenching of the reaction with 10% TCA and washing the phosphocellulose paper with 25 mM phosphoric acid (3×). An STN substructure search was run on mixed anhydrides of phosphoric and boronic acids and found only three references to experiments and theoretical calculations for the analogous putative (but not proven) anhydride formed from boric acid and phosphoric acid as a solid surface impregnated catalyst for the partial oxidation of ethane to acetaldehyde at 823° K. (Zhanpeisov & Otsuka, 1992, Otsuka et al., 1992, Murakami et al., 1990). However, this highly unusual anhydride has never before been synthesized free of a solid surface, isolated, or characterized. Thus, this is a novel enzymatic reaction and chemical entity with interesting possibilities for protein kinase inhibitor designs.

[3] = biological target: T1, PKA; assay: Literature Mimetic PKA assay; assay type: biochemical; conditions: 1000 μM inhibitor, L
Source text: as §1

[4] = biological target: EGFRTK (Homo sapiens, UniProt P00533); assay: EGFRTK inhibition; assay type: biochemical; conditions: % inhibition at 10 micromolar compound
Source text: (§2) Blanks for a particular enzyme indicate that inhibition was not found.

[5] = biological target: T2, PTP-1B (Homo sapiens, UniProt P18031); assay: PTP-1B inhibition; assay type: biochemical; conditions: % inhibition at 10 micromolar compound
T2 sequence (P18031 1-435): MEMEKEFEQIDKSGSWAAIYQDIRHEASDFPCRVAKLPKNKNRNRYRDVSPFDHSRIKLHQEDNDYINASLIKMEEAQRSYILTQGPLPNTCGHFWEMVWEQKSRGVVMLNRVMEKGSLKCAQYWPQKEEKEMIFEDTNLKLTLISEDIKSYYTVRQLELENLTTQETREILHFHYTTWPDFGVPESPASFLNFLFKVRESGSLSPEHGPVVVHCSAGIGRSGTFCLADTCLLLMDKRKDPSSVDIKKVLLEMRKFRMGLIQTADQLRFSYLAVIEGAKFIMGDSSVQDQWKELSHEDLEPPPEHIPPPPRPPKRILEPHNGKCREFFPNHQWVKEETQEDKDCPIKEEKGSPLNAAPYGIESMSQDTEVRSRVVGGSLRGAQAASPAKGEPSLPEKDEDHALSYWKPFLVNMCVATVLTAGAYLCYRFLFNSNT
Source text: as §2

[6] = read-out: % Inhibition of 2 mM RR-src at Inhibitor Concentration (100 μM)

Chain of EGFRTK (P00533 25-1210): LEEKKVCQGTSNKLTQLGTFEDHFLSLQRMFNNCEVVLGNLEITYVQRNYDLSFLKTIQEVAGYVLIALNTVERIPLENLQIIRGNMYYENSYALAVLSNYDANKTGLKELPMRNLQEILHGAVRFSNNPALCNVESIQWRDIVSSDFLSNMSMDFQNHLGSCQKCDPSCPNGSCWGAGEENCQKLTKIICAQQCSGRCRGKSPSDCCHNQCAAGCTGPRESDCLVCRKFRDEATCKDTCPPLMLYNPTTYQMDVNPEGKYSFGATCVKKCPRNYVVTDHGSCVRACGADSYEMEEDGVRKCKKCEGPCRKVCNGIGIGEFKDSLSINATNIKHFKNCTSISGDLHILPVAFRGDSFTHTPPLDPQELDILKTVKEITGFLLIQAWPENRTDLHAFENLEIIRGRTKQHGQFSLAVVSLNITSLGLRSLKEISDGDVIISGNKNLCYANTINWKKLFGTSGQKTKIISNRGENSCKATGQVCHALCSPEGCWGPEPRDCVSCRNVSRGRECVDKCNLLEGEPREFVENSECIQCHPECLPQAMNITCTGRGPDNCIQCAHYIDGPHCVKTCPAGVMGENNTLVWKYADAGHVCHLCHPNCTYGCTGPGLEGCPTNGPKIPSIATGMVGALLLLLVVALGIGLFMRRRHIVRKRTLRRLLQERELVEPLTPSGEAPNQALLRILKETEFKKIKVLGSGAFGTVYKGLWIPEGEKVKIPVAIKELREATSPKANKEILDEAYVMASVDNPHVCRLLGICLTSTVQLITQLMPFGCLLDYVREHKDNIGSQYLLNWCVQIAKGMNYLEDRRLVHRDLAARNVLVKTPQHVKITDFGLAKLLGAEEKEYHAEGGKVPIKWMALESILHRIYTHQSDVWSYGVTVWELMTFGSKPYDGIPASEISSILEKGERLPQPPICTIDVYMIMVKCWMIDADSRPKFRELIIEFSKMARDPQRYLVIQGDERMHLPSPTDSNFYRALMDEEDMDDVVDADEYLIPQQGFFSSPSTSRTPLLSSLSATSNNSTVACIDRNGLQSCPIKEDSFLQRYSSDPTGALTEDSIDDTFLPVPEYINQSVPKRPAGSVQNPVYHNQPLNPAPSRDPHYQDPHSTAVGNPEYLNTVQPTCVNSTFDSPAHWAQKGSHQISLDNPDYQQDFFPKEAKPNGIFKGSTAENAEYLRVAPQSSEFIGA
Chain of pp60^c-src (P12931 whole entry): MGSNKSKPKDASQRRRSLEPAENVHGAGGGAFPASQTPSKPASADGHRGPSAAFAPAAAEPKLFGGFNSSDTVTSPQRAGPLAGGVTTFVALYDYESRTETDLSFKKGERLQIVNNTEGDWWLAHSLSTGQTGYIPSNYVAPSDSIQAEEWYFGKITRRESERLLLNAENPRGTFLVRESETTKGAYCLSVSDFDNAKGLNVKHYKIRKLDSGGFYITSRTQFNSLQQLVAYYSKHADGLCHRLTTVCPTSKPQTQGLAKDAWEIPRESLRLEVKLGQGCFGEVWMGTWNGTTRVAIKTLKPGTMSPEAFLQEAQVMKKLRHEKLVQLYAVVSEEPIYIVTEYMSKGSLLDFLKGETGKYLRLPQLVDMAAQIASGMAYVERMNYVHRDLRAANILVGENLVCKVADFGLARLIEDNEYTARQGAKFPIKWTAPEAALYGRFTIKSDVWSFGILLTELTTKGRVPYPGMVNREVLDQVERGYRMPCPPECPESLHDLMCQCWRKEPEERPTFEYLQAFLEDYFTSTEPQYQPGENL

`COC(=O)c1cc2ccc(B(O)O)cc2cn1` showed an inhibition at 500 µM [1] of 13%.
With `OB(O)c1ccc(-c2ccccc2)cc1` the inhibition at 100 µM [1, 6] was 13%.
With `OB(O)c1cccc(-c2ccccc2)c1` the inhibition at 100 µM [1, 6] was 14%.
In the case of `COC(=O)c1cc2ccc(O)cc2cc1O`, the inhibition at 100 µM [1, 6] is reported as 47%.
Compound `O=C(Nc1cccc(O)c1)c1ccc2cc(O)ccc2c1` has an inhibition at 100 µM [1, 6] of 45%.
`COC(=O)c1cc2cc(O)ccc2[nH]1` gave an inhibition at 500 µM [1] of 40%.
`CC[C@H](C)[C@H](NC(=O)[C@H](CCCB(O)O)NC(=O)CNC(=O)[C@H](CCCNC(=N)N)NC(=O)[C@H](CCCNC(=N)N)NC(C)=O)C(N)=O` (Ac-RRG[X4]I-NH2) was tested, and the “% sti (stimulation)” value ([2]; 2000 μM inhibitor, C, 0 h preincubation) was 2000 μM 6% sti, the IC50 ([2]; IC50 μM (cond. C, 4 h preincubation), Cellular Mimetic, 4 h preincubation) was 1730 µM and the inhibition at 1000 µM ([3]; 0 h preincubation) was 33%. For the same compound, the inhibition at 1000 µM ([3]; 4 h preincubation) was 44%.
Compound `O=C(NCc1cccc(O)c1)c1cc2cc(O)ccc2[nH]1` [Cmpd 2k] has an inhibition at 45 µM ([1]; [ATP] 200 μM) of 46%, an inhibition at 45 µM ([1]; [ATP] 1,000 μM) of 41% and an inhibition at 100 µM ([1]; read-out: % Inhibition at 100 μM (std. dev.), Table X, hydroxyindole derivatives) of 74%.
`COc1cccc([C@H](C)NC(=O)c2cc3cc(F)ccc3[nH]2)c1` [Compound 1aa] was tested, and the “EGFRTK @ 10 μm” value [4] was 12%.
With `O=C(NCc1cc(C(F)(F)F)ccc1F)c1cc2cc(F)ccc2[nH]1` [Compound 1aaa] the “PTP-1B @ 10 μm” value [5] was 12%.
In the case of `O=C(NCc1ccccc1)c1cc2cc(F)ccc2[nH]1` [Compound 1bb], the “EGFRTK @ 10 μm” value [4] is reported as 19%.
In the case of `O=C(N[C@H](c1ccccc1)[C@H](O)c1ccccc1)c1cc2cc(F)ccc2[nH]1` [Compound 1cc], the “EGFRTK @ 10 μm” value [4] is reported as 19%.
For `O=C(N[C@@H](c1ccccc1)[C@@H](O)c1ccccc1)c1cc2cc(F)ccc2[nH]1` [Compound 1dd], the “EGFRTK @ 10 μm” value [4] was 41%.
With `O=C(NCc1cc(O)cc(OCc2ccccc2)c1)c1cc2cc(F)ccc2[nH]1` [Compound 1dddd] the “PTP-1B @ 10 μm” value [5] was 16%.
With `COc1ccc(CNC(=O)c2cc3cc(F)ccc3[nH]2)cc1` [Compound 1ee] the “EGFRTK @ 10 μm” value [4] was 16%.
For `O=C(NCc1cccc(I)c1)c1cc2cc(F)ccc2[nH]1` [Compound 1ff], the “EGFRTK @ 10 μm” value [4] was 24%.
`Cc1ccccc1CNC(=O)c1cc2cc(F)ccc2[nH]1` [Compound 1ffff] was tested, and the “EGFRTK @ 10 μm” value [4] was 12%.
With `O=C(NCc1ccc(O)c(O)c1)c1cc2cc(F)ccc2[nH]1` [Compound 1gggg] the “EGFRTK @ 10 μm” value [4] was 25%.
`COc1cc(CNC(=O)c2cc3cc(F)ccc3[nH]2)cc(OC)c1` [Compound 1hhhh] was tested, and the “PTP-1B @ 10 μm” value [5] was 17%.
For `O=C(NCc1cc(OCc2ccccc2)cc(OCc2ccccc2)c1)c1cc2cc(F)ccc2[nH]1` [Compound 1iiii], the “EGFRTK @ 10 μm” value [4] was 12%.
`O=C(NCc1ccc(OCc2ccccc2)c(O)c1)c1cc2cc(F)ccc2[nH]1` [Compound 1jjjj] was tested, and the “PTP-1B @ 10 μm” value [5] was 15%.
